System: NOMO1
Assay: cell viability relative to DMSO control; higher = less cytotoxic
Details: 48 h
Method in brief: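 Viability, reported as a per-plate percentage of DMSO wells with cell-free wells as background, came from CellTiter-Glo One luminescence. Reading took place after 48 h at 37°C. Before that, NOMO1 or SEM (500 cells/well) or P12-Ichikawa (1000 cells/well) leukemia cells, adapted for at least four passages in each medium, were seeded in 1536-well plates (5 μl) and pin-dosed with library compounds in DMSO, 47 μM to 0.79 nM over 11 threefold points.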

[1] = RPMI 5 mM glucose + 10% FBS, 0.000781 µM
[2] = RPMI 5 mM glucose + 10% FBS, 0.00234 µM
[3] = RPMI 5 mM glucose + 10% FBS, 0.00702 µM
[4] = RPMI 5 mM glucose + 10% FBS, 0.0211 µM
[5] = RPMI 5 mM glucose + 10% FBS, 0.0632 µM
[6] = RPMI 5 mM glucose + 10% FBS, 0.19 µM
[7] = RPMI 5 mM glucose + 10% FBS, 0.569 µM
[8] = RPMI 5 mM glucose + 10% FBS, 1.71 µM
[9] = RPMI 5 mM glucose + 10% FBS, 5.12 µM
[10] = RPMI 5 mM glucose + 10% FBS, 15.4 µM
[11] = RPMI 5 mM glucose + 10% FBS, 46.1 µM
[12] = RPMI 5 mM glucose + 10% dialyzed FBS, 0.000781 µM
[13] = RPMI 5 mM glucose + 10% dialyzed FBS, 0.00234 µM
[14] = RPMI 5 mM glucose + 10% dialyzed FBS, 0.00702 µM
[15] = RPMI 5 mM glucose + 10% dialyzed FBS, 0.0211 µM
[16] = RPMI 5 mM glucose + 10% dialyzed FBS, 0.0632 µM
[17] = RPMI 5 mM glucose + 10% dialyzed FBS, 0.19 µM
[18] = RPMI 5 mM glucose + 10% dialyzed FBS, 0.569 µM
[19] = RPMI 5 mM glucose + 10% dialyzed FBS, 1.71 µM
[20] = RPMI 5 mM glucose + 10% dialyzed FBS, 5.12 µM
[21] = RPMI 5 mM glucose + 10% dialyzed FBS, 15.4 µM
[22] = RPMI 5 mM glucose + 10% dialyzed FBS, 46.1 µM
[23] = HPLM + 10% dialyzed FBS, 0.000781 µM
[24] = HPLM + 10% dialyzed FBS, 0.00234 µM
[25] = HPLM + 10% dialyzed FBS, 0.00702 µM
[26] = HPLM + 10% dialyzed FBS, 0.0211 µM
[27] = HPLM + 10% dialyzed FBS, 0.0632 µM
[28] = HPLM + 10% dialyzed FBS, 0.19 µM
[29] = HPLM + 10% dialyzed FBS, 0.569 µM
[30] = HPLM + 10% dialyzed FBS, 1.71 µM
[31] = HPLM + 10% dialyzed FBS, 5.12 µM
[32] = HPLM + 10% dialyzed FBS, 15.4 µM
[33] = HPLM + 10% dialyzed FBS, 46.1 µM

Row | Structure (SMILES) | cell viability [1] [%] | cell viability [2] [%] | cell viability [3] [%] | cell viability [4] [%] | cell viability [5] [%] | cell viability [6] [%] | cell viability [7] [%] | cell viability [8] [%] | cell viability [9] [%] | cell viability [10] [%] | cell viability [11] [%] | cell viability [12] [%] | cell viability [13] [%] | cell viability [14] [%] | cell viability [15] [%] | cell viability [16] [%] | cell viability [17] [%] | cell viability [18] [%] | cell viability [19] [%] | cell viability [20] [%] | cell viability [21] [%] | cell viability [22] [%] | cell viability [23] [%] | cell viability [24] [%] | cell viability [25] [%] | cell viability [26] [%] | cell viability [27] [%] | cell viability [28] [%] | cell viability [29] [%] | cell viability [30] [%] | cell viability [31] [%] | cell viability [32] [%] | cell viability [33] [%]
1 | CC1=CC=CC=C1CN2C(=O)C/3=C(/CCN(CC4=CC=CC=C4)C3)N\5CC\N=C25 | 109 | 118 | 121 | 124 | 134 | 113 | 116 | 119 | 59 | 20.1 | 21.4 | 132 | 118 | 122 | 126 | 120 | 122 | 133 | 86.6 | 69.9 | 25.9 | 23.6 | – | – | – | – | – | – | – | – | – | – | –
2 | O=C(/C=C/c1c(C(=O)[O-])[nH]c2cc(Cl)cc(Cl)c12)Nc1ccccc1 | 90.5 | 99 | 99.5 | 95.1 | 101 | 116 | 107 | 107 | 107 | 124 | 107 | 110 | 109 | 114 | 126 | 126 | 120 | 115 | 120 | 111 | 127 | 118 | 112 | 115 | 116 | 116 | 99.9 | 117 | 118 | 110 | 113 | 112 | 108
3 | OCc1ccc(-c2nn(Cc3ccccc3)c3ccccc23)o1 | 104 | 111 | 104 | 102 | 95.4 | 96.4 | 96.8 | 93.4 | 98.6 | 38 | 8.67 | 110 | 105 | 105 | 113 | 107 | 105 | 107 | 89.6 | 81.6 | 42.4 | 7.56 | 120 | 101 | 120 | 127 | 108 | 101 | 111 | 64.6 | 91.6 | 38.5 | 9
4 | C[C@@H]1COCCN1C\2=C\C(=O)N\3CC[C@H](N(CC4=CN=CC(=C4)Cl)C3=N2)C(F)(F)F | 98 | 87.7 | 95.1 | 93.8 | 95.4 | 98.5 | 92.7 | 94.2 | 96.9 | 57.4 | 26 | 87.7 | 89.9 | 91.1 | 98.4 | 108 | 113 | 95.1 | 89.5 | 67.7 | 37 | 22 | 90.9 | 95.9 | 102 | 105 | 124 | 130 | 112 | 100 | 103 | 45.4 | 29.4
5 | Cc1cccc(-c2nn(C(=S)Nc3ccccc3)cc2-c2ccnc3ccccc23)n1 | 108 | 118 | 109 | 122 | 111 | 113 | 119 | 108 | 115 | 81.6 | 94.9 | 115 | 122 | 112 | 119 | 115 | 103 | 111 | 104 | 117 | 112 | 102 | – | – | – | – | – | – | – | – | – | – | –
6 | CC(C)(C)C(=O)Oc1ccc([S+](=O)([O-])Nc2ccccc2C(=O)NCC(=O)O)cc1 | 107 | 102 | 99.7 | 98.4 | 112 | 108 | 114 | 117 | 104 | 109 | 129 | 110 | 117 | 113 | 122 | 109 | 122 | 119 | 116 | 129 | 131 | 124 | 115 | 106 | 139 | 122 | 117 | 110 | 109 | 113 | 129 | 122 | 134
7 | CC(C)n1nc(-c2ccc3oc(N)nc3c2)c2c(N)ncnc21 | 93.1 | 96.5 | 83.3 | 77.6 | 66.6 | 59.2 | 56.8 | 50.3 | 49.9 | 38.7 | 34.4 | 83.4 | 74.5 | 67.2 | 58.5 | 59.6 | 52.6 | 51.7 | 48.6 | 43.2 | 35.7 | 31.3 | 96.9 | 75.9 | 65.1 | 62.6 | 55.3 | 53.6 | 52.2 | 55 | 50.6 | 33.1 | 26.3
8 | c1cc(CN2CCCNCCNCCCNCC2)ccc1CN1CCCNCCNCCCNCC1 | 88.4 | 85.8 | 97.8 | 18.6 | 89.2 | 105 | 86.7 | 88.4 | 85.4 | 101 | 92.5 | 89.2 | 78.2 | 83.5 | 33 | 98.3 | 93.9 | 102 | 92.7 | 91.3 | 91.4 | 93.4 | 79.6 | 109 | 100 | 30.5 | 117 | 108 | 102 | 109 | 109 | 106 | 104
9 | [NH2][Pt]([NH2])([Cl])[Cl] | 83.7 | 92.2 | 79.8 | 99.6 | 89.7 | 103 | 85.9 | 88.1 | 84.6 | 82.4 | 81.3 | 90 | 90.6 | 88 | 85.8 | 97.4 | 94.7 | 96.8 | 96 | 94.9 | 89.3 | 101 | 94.8 | 110 | 91.2 | 103 | 121 | 110 | 93.8 | 99.4 | 95.5 | 90.5 | 94
10 | O=C(NC[C@H](O)CN1CCc2ccccc2C1)c1cc(NC2COC2)ncn1 | 92.9 | 80.4 | 88.2 | 99.3 | 83 | 89.9 | 94.4 | 92.6 | 84.3 | 75.1 | 74.2 | 83.5 | 92.8 | 93.5 | 101 | 84.7 | 91.8 | 68.4 | 66.4 | 81.4 | 67.3 | 63.3 | 93.5 | 117 | 173 | 29.5 | 64.5 | 99.2 | 101 | 72.7 | 70.7 | 56.1 | 38.6
11 | CCC(=O)OCC(=O)[C@@]1(OC(=O)CC)[C@@H](C)C[C@H]2[C@@H]3CCC4=CC(=O)C=C[C@]4(C)[C@@]3(F)[C@@H](O)C[C@@]21C | 99.3 | 98.8 | 107 | 112 | 112 | 105 | 116 | 95 | 84.5 | 16.9 | 18.8 | 110 | 112 | 117 | 115 | 118 | 136 | 108 | 79.1 | 84.3 | 26.4 | 23.9 | 117 | 130 | 111 | 109 | 115 | 97.4 | 106 | 62.7 | 43.5 | 28.3 | 25.4
12 | CC1(C)CCC(=C(CN2CCN(CC2)C3=CC=C(C=C3)C(=O)N[S+]([O-])(=O)C4=CC(=C(N[C@H](CCN5CCOCC5)CSC6=CC=CC=C6)C=C4)[S+]([O-])(=O)C(F)(F)F)\C1)/C7=CC=C(Cl)C=C7 | – | – | – | – | – | – | – | – | – | – | – | 116 | 125 | 118 | 117 | 90.1 | 78.9 | 61.7 | 23.9 | 24.7 | 29.9 | 22.5 | 124 | 132 | 123 | 128 | 116 | 112 | 96.7 | 57.1 | 49.2 | 39.2 | 43.2
13 | C[S+](=O)([O-])N(Cc1ccco1)CC(O)Cn1c2ccccc2c2ccccc21 (stereo not drawn) | 88.4 | 91.6 | 91.4 | 92.2 | 94.3 | 94 | 90 | 80.7 | 79.6 | 86.3 | 52.8 | 97.9 | 89.2 | 93.3 | 90.3 | 93.3 | 90.1 | 97.8 | 85.1 | 80.8 | 77.9 | 50.8 | 95.3 | 99 | 102 | 105 | 86.5 | 91.2 | 93.9 | 82.8 | 83.6 | 73.6 | 35.2
14 | CO[C@H]1C[C@@H]2CC[C@@H](C)[C@@](O)(O2)C(=O)C(=O)N2CCCC[C@H]2C(=O)O[C@H]([C@H](C)C[C@@H]2CC[C@@H](OC(=O)C(C)(CO)CO)[C@H](OC)C2)CC(=O)[C@H](C)/C=C(\C)[C@@H](O)[C@@H](OC)C(=O)[C@H](C)C[C@H](C)/C=C/C=C/C=C/1C | 108 | 108 | 114 | 117 | 98.3 | 113 | 110 | 110 | 77 | 74.5 | 60.3 | 96.1 | 115 | 106 | 103 | 108 | 101 | 101 | 108 | 93.2 | 71.6 | 64.5 | 91.2 | 113 | 105 | 98.5 | 93.4 | 102 | 98.6 | 92.8 | 93.9 | 82.1 | 64.7
15 | O=C(/C=C/c1cccc([S+](=O)([O-])Nc2ccccc2)c1)NO | – | – | – | – | – | – | – | – | – | – | – | – | – | – | – | – | – | – | – | – | – | – | 143 | 112 | 121 | 120 | 154 | 132 | 139 | 129 | 88 | 12.2 | 9.85
16 | OC[C@H](Cc1ccccc1)Nc1nc(Oc2ccc3c(c2)CCC3)nc2c1ncn2Cc1ccc(-c2ccccc2)cc1 | 79.7 | 83.2 | 84.8 | 96.4 | 102 | 89.7 | 90.3 | 92.2 | 98.8 | 90.5 | 90.2 | 90.7 | 84 | 102 | 95.6 | 98.5 | 101 | 116 | 96.7 | 100 | 114 | 96.3 | 95.3 | 100 | 83.5 | 123 | 86.9 | 98.5 | 108 | 88.6 | 99.5 | 87.2 | 96.7

Reference: the supplement of paper PMC11451515
